In general, EC50 refers to the concentration giving half of the maximal effect.

SMILES strings stand for the structures.

The subject of this test is endogenous cellular STAT1 (phosphorylated at Tyr701) in NCI-H1373 cells. Briefly: Phospho-STAT1 (Tyr701) LANCE Ultra TR-FRET Detection Assay. Type of test: cell-based. Conditions: Homo sapiens, NCI-H1373, 48 h, phospho-STAT1 (Tyr701) induction, read-out: NH1373 pSTAT1 EC50. How it is done: Phospho-STAT1 (Tyr701 LANCE Ultra TR-FRET Detection Assay
d. LANCE Ultra phospho-STAT1 (Tyr701) kits are designed for the detection of phosphorylated STAT1 in cell lysates using a simple, homogeneous LANCE Ultra sandwich assay (Cat. #TRF4028M). This assay is intended for assessing compound induction of endogenous levels of cellular STAT1 (phosphorylated at Tyr701) in NCI-H1373 cells. The NCI-H1373 cells are cultured in RPMI 1640 media containing 10% heat inactivated FBS, GlutaMAX, 1% Penicillin-Streptomycin. An Echo acoustic liquid handler is used to transfer 60 nanoliters of compound dilutions using the Echo Qualified, 384-well polypropylene microplate clear flat bottom source plates into a Greiner (#781080) cell culture microplate. NCI-H1373 cells are seeded into these compound-spotted culture plates at 30,000 cells/well in a 60 uL volume in growth media. The plates are incubated in a 5% CO2 humidified incubator at 37° C. for 48 hours. […] After spinning the plate down at 300 rpm for 1 min, the plate is read on an EnVision plate reader set up for Eu3+ Cryptate and fluorescence emission is measured at two different wavelengths (665 nm and 620 nm). The HTRF ratio is then calculated […] for each well to determine the amount of pSTAT1 in the cell lysate, and the data is then normalized to 10 uM GS-1154611 positive and DMSO negative controls.
(TR-FRET usually uses a lanthanide donor and a delayed reading to cut background.)

As for `COc1cnc(-c2cc3ccn(CCC[C@@H]4CCCN4c4cn[nH]c(=O)c4C(F)(F)F)c(=O)c3cc2F)nc1N` [Example 122, (S)-6-(4-amino-5-methoxypyrimidin-2-yl)-7-fluoro-2-(3-(1-(6-oxo-5-(trifluoromethyl)-1,6-dihydropyridazin-4-yl)pyrrolidin-2-yl)propyl)isoquinolin-1(2H)-one], the concentration giving a half-maximal response (EC50) is 8.04 nM.

As to `CC[C@@H](CCCn1cnc2cc(-c3ncc(C(F)(F)F)c(N)n3)c(F)cc2c1=O)Nc1cn[nH]c(=O)c1C(F)(F)F` [Example 321, (S)-7-(4-amino-5-(trifluoromethyl)pyrimidin-2-yl)-6-fluoro-3-(4-((6-oxo-5-(trifluoromethyl)-1,6-dihydropyridazin-4-yl)amino)hexyl)quinazolin-4(3H)-one], the EC50 worked out at 4.11 nM.

In the case of `CN(CCCn1ccc2cc(-c3ncc(C(F)(F)F)cn3)c(F)cc2c1=O)Nc1cn[nH]c(=O)c1C(F)(F)F` [Example 172, 7-fluoro-2-(3-(1-methyl-2-(6-oxo-5-(trifluoromethyl)-1,6-dihydropyridazin-4-yl)hydrazineyl)propyl)-6-(5-(trifluoromethyl)pyrimidin-2-yl)isoquinolin-1(2H)-one], the EC50 came to 1010 nM.

In the case of `C[C@@H](CCCn1ccc2cc(-c3cc(C(F)(F)F)c(N)cn3)c(F)cc2c1=O)Nc1cn[nH]c(=O)c1C(F)(F)F` [Example 97, (S)-6-(5-amino-4-(trifluoromethyl)pyridin-2-yl)-7-fluoro-2-(4-((6-oxo-5-(trifluoromethyl)-1,6-dihydropyridazin-4-yl)amino)pentyl)isoquinolin-1(2H)-one], the half-maximal effective concentration (EC50) stood at 67.3 nM.

Consider `[2H]C([2H])([2H])OC[C@@H](CCCn1cnc2cc(-c3ncc(C(F)(F)F)c(N)n3)c(F)cc2c1=O)Nc1cn[nH]c(=O)c1C(F)(F)F` [Example 432], for which the 50% effective concentration (EC50) is 12.7 nM.

Regarding `C[C@@H](CCCn1ccc2cc(-c3ncc(C(C)(C)O)cn3)c(F)cc2c1=O)Nc1cn[nH]c(=O)c1C(F)(F)F` [Example 74, 7-fluoro-6-[5-(1-hydroxy-1-methyl-ethyl)pyrimidin-2-yl]-2-[(4S)-4-[[6-oxo-5-(trifluoromethyl)-1H-pyridazin-4-yl]amino]pentyl]isoquinolin-1-one], the 50% effective concentration (EC50) came out at 65.3 nM.

Turning to `CC(C)(O)c1ccc(-c2cc3ccn(C[C@@H]4CCC[C@H](Nc5cn[nH]c(=O)c5C(F)(F)F)C4)c(=O)c3cc2F)nc1` [Example 283, 7-fluoro-6-(5-(2-hydroxypropan-2-yl)pyridin-2-yl)-2-(((1R,3S)-3-((6-oxo-5-(trifluoromethyl)-1,6-dihydropyridazin-4-yl)amino)cyclohexyl)methyl)isoquinolin-1(2H)-one], the EC50 was 113 nM.

`O=c1[nH]ncc(N[C@H]2CCC[C@@H](Cn3cnc4cc(-c5ncc(Cl)cn5)c(F)cc4c3=O)C2)c1C(F)(F)F` [Example 247, 7-(5-chloropyrimidin-2-yl)-6-fluoro-3-(((1R,3S)-3-((6-oxo-5-(trifluoromethyl)-1,6-dihydropyridazin-4-yl)amino)cyclohexyl)methyl)quinazolin-4(3H)-one]: the 50% effective concentration (EC50) stood at 8.8 nM.

For the molecule `Nc1nc(-c2cc3ccn(CCC[C@H](COC(F)F)Nc4cn[nH]c(=O)c4C(F)(F)F)c(=O)c3c(F)c2F)ncc1C(F)F` [Example 387, (R)-6-(4-amino-5-(difluoromethyl)pyrimidin-2-yl)-2-(5-(difluoromethoxy)-4-((6-oxo-5-(trifluoromethyl)-1,6-dihydropyridazin-4-yl)amino)pentyl)-7,8-difluoroisoquinolin-1(2H)-one], the EC50 came out at 10.4 nM.

On to `C[C@@H](CCCn1ccc2cc(-c3ccc(F)c(C(F)F)n3)c(F)cc2c1=O)Nc1cn[nH]c(=O)c1C(F)(F)F` [Example 330, (S)-6-(6-(difluoromethyl)-5-fluoropyridin-2-yl)-7-fluoro-2-(4-((6-oxo-5-(trifluoromethyl)-1,6-dihydropyridazin-4-yl)amino)pentyl)isoquinolin-1(2H)-one], for which the 50% effective concentration (EC50) was 1210 nM.

Take `Nc1nc(-c2cc3ncn(CCC[C@@H](Nc4cn[nH]c(=O)c4C(F)(F)F)C4CC4)c(=O)c3cc2F)ncc1C(F)(F)F` [Example 469, 7-[4-amino-5-(trifluoromethyl)pyrimidin-2-yl]-3-[(4R)-4-cyclopropyl-4-[[6-oxo-5-(trifluoromethyl)-1H-pyridazin-4-yl]amino]butyl]-6-fluoro-quinazolin-4-one]: the EC50 was 14.5 nM.

For the molecule `C[C@@H](CCCn1ccc2cc(-c3ncc(C(F)F)c(N)n3)c(F)c(F)c2c1=O)Nc1cn[nH]c(=O)c1C(F)(F)F` [Example 113, 6-[4-amino-5-(difluoromethyl)pyrimidin-2-yl]-7,8-difluoro-2-[(4S)-4-[[6-oxo-5-(trifluoromethyl)-1H-pyridazin-4-yl]amino]pentyl]isoquinolin-1-one], the EC50 was 6.93 nM.

Turning to `O=c1[nH]ncc(N[C@H]2CCC[C@@H](Cn3ccc4cc(-c5ncc(C(F)(F)F)cn5)c(F)cc4c3=O)C2)c1C(F)(F)F` [Example 183, 7-fluoro-2-[[(1R,3S)-3-[[6-oxo-5-(trifluoromethyl)-1H-pyridazin-4-yl]amino]cyclohexyl]methyl]-6-[5-(trifluoromethyl)pyrimidin-2-yl]isoquinolin-1-one], the EC50 is 6.39 nM.

As for `Nc1nc(-c2cc3ccn(CCC[C@H](CCOC(F)F)Nc4cn[nH]c(=O)c4C(F)(F)F)c(=O)c3cc2F)ncc1C(F)(F)F` [Example 467, 6-[4-amino-5-(trifluoromethyl)pyrimidin-2-yl]-2-[(4R)-6-(difluoromethoxy)-4-[[6-oxo-5-(trifluoromethyl)-1H-pyridazin-4-yl]amino]hexyl]-7-fluoro-isoquinolin-1-one], the EC50 was determined as 4.13 nM.

Turning to `CC(CCCn1ccc2cc(-c3ccc(C(F)(F)F)cn3)ccc2c1=O)Nc1cn[nH]c(=O)c1C(F)(F)F` (stereo not shown) [Example 1, 2-(4-((6-oxo-5-(trifluoromethyl)-1,6-dihydropyridazin-4-yl)amino)pentyl)-6-(5-(trifluoromethyl)pyridin-2-yl)isoquinolin-1(2H)-one], the concentration for a half-maximal effect (EC50) is 97.8 nM.

With `C[C@@H](CCCn1ccc2cc(-c3ncc(C(F)(F)F)cc3Cl)c(F)cc2c1=O)Nc1cn[nH]c(=O)c1C(F)(F)F` [Example 326, (S)-6-(3-chloro-5-(trifluoromethyl)pyridin-2-yl)-7-fluoro-2-(4-((6-oxo-5-(trifluoromethyl)-1,6-dihydropyridazin-4-yl)amino)pentyl)isoquinolin-1(2H)-one], the concentration for a half-maximal effect (EC50) was 113 nM.

`C[C@@H](CCCn1ccc2cc(-c3nc(N)c4ccccc4n3)c(F)cc2c1=O)Nc1cn[nH]c(=O)c1C(F)(F)F` [Example 363, (S)-6-(4-aminoquinazolin-2-yl)-7-fluoro-2-(4-((6-oxo-5-(trifluoromethyl)-1,6-dihydropyridazin-4-yl)amino)pentyl)isoquinolin-1(2H)-one]: the EC50 is 3.28 nM.

In the case of `[2H]C([2H])([2H])OC[C@@H](CCCn1ccc2cc(-c3ncc(C(F)(F)F)cn3)c(F)cc2c1=O)Nc1cn[nH]c(=O)c1C(F)(F)F` [Example 181, (R)-7-fluoro-2-(5-(methoxy-d3)-4-((6-oxo-5-(trifluoromethyl)-1,6-dihydropyridazin-4-yl)amino)pentyl)-6-(5-(trifluoromethyl)pyrimidin-2-yl)isoquinolin-1(2H)-one], the EC50 turned out to be 14.2 nM.

Turning to `COc1cnc(-c2cc3ccn(CCC[C@H](C)Nc4cn[nH]c(=O)c4C(F)(F)F)c(=O)c3cc2F)nc1N1CC(O)(C(F)(F)F)C1` [Example 286, (S)-7-fluoro-6-(4-(3-hydroxy-3-(trifluoromethyl)azetidin-1-yl)-5-methoxypyrimidin-2-yl)-2-(4-((6-oxo-5-(trifluoromethyl)-1,6-dihydropyridazin-4-yl)amino)pentyl)isoquinolin-1(2H)-one], the 50% effective concentration (EC50) stood at 61.9 nM.

Take `Nc1nc(-c2cc3ncn(C[C@@H]4CCC[C@H](Nc5cn[nH]c(=O)c5C(F)(F)F)C4)c(=O)c3cc2F)ncc1OC(F)F` [Example 265, 7-(4-amino-5-(difluoromethoxy)pyrimidin-2-yl)-6-fluoro-3-(((1R,3S)-3-((6-oxo-5-(trifluoromethyl)-1,6-dihydropyridazin-4-yl)amino)cyclohexyl)methyl)quinazolin-4(3H)-one]: the EC50 was 52.3 nM.

On to `O=c1[nH]ncc(N[C@H]2CCC[C@@H](Cn3cc(F)c4cc(-c5ncc(C(F)F)cn5)c(F)cc4c3=O)C2)c1C(F)(F)F` [Example 482, 6-(5-(difluoromethyl)pyrimidin-2-yl)-4,7-difluoro-2-(((1R,3S)-3-((6-oxo-5-(trifluoromethyl)-1,6-dihydropyridazin-4-yl)amino)cyclohexyl)methyl)isoquinolin-1(2H)-one], for which the 50% effective concentration (EC50) was 1.94 nM.

With `O=c1[nH]ncc(N[C@H](CCCn2ccc3cc(-c4cnc(N5CCOCC5)cn4)c(F)cc3c2=O)COC(F)F)c1C(F)(F)F` [Example 422, (R)-2-(5-(difluoromethoxy)-4-((6-oxo-5-(trifluoromethyl)-1,6-dihydropyridazin-4-yl)amino)pentyl)-7-fluoro-6-(5-morpholinopyrazin-2-yl)isoquinolin-1(2H)-one], the EC50 came to 87.9 nM.

For the origin of these results see patent US12459922B2 (Gilead Sciences, Inc., priority 2022, dated 2025).
